{"source": "patent US5948784A", "about": "“Quinazoline derivatives” (Kyowa Hakko Kogyo Co., Ltd., priority 1994, dated 1999)", "key": {"[1]": {"test_system": "[^3 H]-adenosine uptake in erythrocytes", "test": "Inhibitory Effect on [^3 H]-Adenosine Uptake (washed erythrocytes)", "format": "cell-based, human (healthy male adult)", "details": "Homo sapiens; erythrocyte suspension, 1 hour preincubation at room temperature, 10 seconds uptake; read-out: [^3 H]-Adenosine Uptake Inhibition IC50", "protocol": "A blood sample was obtained from a healthy adult under 40 years of age by brachial venipuncture using a syringe containing sodium citrate and subjected to centrifugation to obtain washed erythrocytes. […] Ten seconds later, 200 μl of a dilazep solution (1 mg/ml) was added to stop the reaction. […] The supernatant was removed and the erythrocyte fraction was separated. […] The concentration of the test compound which inhibits the [^3 H]-adenosineuptake by 50% (IC50) was calculated."}, "[2]": {"target": "T1, [^3 H]-Nitrobenzylthioinosine (NBI) binding, cerebral cortex homogenate (Cavia porcellus, UniProt H0V4R7)", "T1 construct": "The cerebral cortex of a male guinea pig of Hartley strain was homogenized; from tissue; host or cells: cerebral cortex of male Hartley guinea pig (washed membrane precipitate)", "T1 sequence (H0V4R7 1-461)": "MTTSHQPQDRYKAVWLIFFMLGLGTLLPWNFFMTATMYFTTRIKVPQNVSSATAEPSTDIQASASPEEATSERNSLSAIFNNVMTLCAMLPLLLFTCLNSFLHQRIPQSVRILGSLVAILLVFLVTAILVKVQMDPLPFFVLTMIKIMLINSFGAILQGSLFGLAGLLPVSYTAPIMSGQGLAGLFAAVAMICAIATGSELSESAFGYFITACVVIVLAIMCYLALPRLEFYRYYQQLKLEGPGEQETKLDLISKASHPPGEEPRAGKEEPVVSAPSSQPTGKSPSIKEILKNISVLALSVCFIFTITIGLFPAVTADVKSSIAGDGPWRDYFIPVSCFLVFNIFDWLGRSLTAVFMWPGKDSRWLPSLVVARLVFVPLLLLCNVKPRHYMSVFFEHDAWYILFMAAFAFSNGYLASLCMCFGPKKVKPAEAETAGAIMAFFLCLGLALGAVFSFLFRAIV", "test": "Inhibitory Effect on [^3 H]-Nitrobenzylthioinosine (NBI) Binding", "design": "species or system guinea pig (male, Hartley strain)", "details": "guinea pig cerebral cortex, 1.5 nM [^3 H]-NBI, 25° C., 30 minutes, Cheng-Prusoff", "protocol": "The cerebral cortex of a male guinea pig of Hartley strain was homogenized with an ice-cooled 50 mM tris-HCl buffer (pH 7.4) in an amount of 25 times (w/v) that of the tissue. The homogenate was centrifuged (30,000×g, 4° C., 20 mins.), and the supernatant was discarded. To the precipitate was added the same amount of the buffer, followed by homogenization and then centrifugation in the same manner as above. The obtained precipitate was suspended in 20 times as much buffer as the precipitate to prepare a suspension for testing. To a DMSO solution of a test compound were added 1.5 nM of [^3 H]-NBI and 5 mg (wet basis) of the tissue homogenate, and the mixture was allowed to stand at 25° C. for 30 minutes. To the mixture was added 4 ml of an ice-cooled buffer, followed by rapid filtration with suction through a glass filter (GF/C, produced by Whatman Ltd.) or a Ready filter (produced by Beckman Co.) to stop the reaction. The filter was transferred to a scintillation vial, and after drying, Scintisol EX-H was added thereto. The radioactivity was measured with a liquid scintillation counter. The binding inhibitory activity was expressed in terms of an inhibition constant (Ki value) as calculated according to Cheng-Prusoff's formula."}, "dd-strain male mice": {"test_system": "dd-strain male mice", "test": "Acute Toxicity Test", "format": "in vivo", "details": "mortality seven days after administration", "protocol": "A test compound was orally or intraperitoneally administered to groups of dd-strain male mice weighing 20±1 g, each group consisting of three mice. […] The MLD was >1000 mg/kg for oral administration of Compound 10 and was >100 mg/kg for intraperitoneal administration of Compound 10."}, "[3]": {"test_system": "Masugi Nephritis in ddY-strain male mice", "test": "Effect on Increase of Albumin Excretion in Masugi Nephritis", "format": "in vivo, mouse", "protocol": "Mouse nephrotoxin (hereinafter referred to as NT) was prepared according to the method of Ito, et al. [The Japanese Journal of Nephrology, 23, 25-36 (1981)]. That is, glomerular basement membrane (hereinafter referred to as GBM) was isolated from mouse kidney and digested with trypsin (Sigma). The digested GBM was subjected to ultracentrifugation under cooling, and the supernatant was dialyzed against distilled water, followed by lyophilization. The lyophile product was intracutaneously injected as an antigen into four foot pads of a rabbit together with Freund's complete adjuvant (Iatron; hereinafter referred to as FCA) once a week for 4 weeks for immunization. The whole blood was drawn from the immunized rabbit, and serum was separated and inactivated at 56° C. for 30 minutes to prepare NT.\nIn this test, ddY-strain male mice weighing 29-36 g were used. For previous immunization, 0.25 ml of an FCA emulsion containing 0.25 mg of rabbit immunoglobulin-globulin (IgG, Sigma) was intraperitoneally injected into mice. Nephritis was induced by intravenous injection of 0.075 ml of NT through the tail vein 4 and 11 days after the previous immunization. […] The supernatant was analyzed for albumin using an autoanalyzer (Olympus). […]\nThe results are shown in Table 7 as the means±standard error of each group consisting of 11 mice. Statistical significance was evaluated by Student's t-test."}, "[4]": {"test_system": "Diabetic Nephropathy (STZ) in ddY-strain male mice", "test": "Effect on Increase of Albumin Excretion in Diabetic Nephropathy", "format": "in vivo, mouse", "details": "for Urinary Albumin Content: mean, standard error, control 333 ± 30, normal 80 ± 3", "protocol": "In this test, ddY-strain male mice weighing 25-28 g were used. Diabetes was induced according to the method of Tsuchida, et al. [Jin To Toseki (Kidney and Dialysis), 31, 363-366 (1991)]. That is, streptozotocin (5 mg/ml, Sigma; hereinafter referred to as STZ) dissolved in 0.05 M citrate buffer was intravenously injected into mice through the tail vein at a dose of 10 ml/kg. On the fourth day after the STZ administration, 30 μl of blood was collected from the tail vein of the mice and the blood glucose was determined using Glutestsensor (Sanwa Kagaku). The animals were divided into three groups based on the blood glucose level. Twelve weeks after the STZ administration, each mouse was put into a metabolic cage and received oral administration of 0.5 ml/10 g of distilled water twice at an interval of 12 hours. Urine was collected for 24 hours, and after measurement of the volume, the urine was centrifuged under cooling (3000 rpm, 4° C. ) for 5 minutes. The supernatant was analyzed for albumin using an autoanalyzer (Olympus). A test compound was orally administered once a day for 11 weeks, starting on the fifth day after the STZ administration. The normal group and the control group received oral administration of a solvent (5% methyl cellulose solution). The results are shown in Table 8 as the means standard error of each group. Statistical significance was evaluated by Aspin-Welch's test for the difference between the control group and the normal group and by Steel's test for the difference between the control group and the test compound-administered group."}}, "data": [{"smiles": "COc1cc2nc(N(C)CCN(C)C)nc(N3CCC(n4c(=O)c5cc(C)ccc5n(C)c4=O)CC3)c2cc1OC", "note": "[Compound 7, 3-{1-{2-[N-(2-Dimethylaminoethyl)-N-methylamino]-6,7-dimethoxy-4-quinazolinyl}-4-piperidinyl}-1,2,3,4-tetrahydro-1,6-dimethyl-2,4-dioxoquinazoline]", "values": [{"measurement": "IC50", "setting": "[1]", "value": 62, "unit": "nM"}, {"measurement": "Ki", "setting": "[2]", "value": 3.8, "unit": "nM"}]}, {"smiles": "CCOc1cc2nc(N3CCOCC3)nc(N3CCC(n4c(=O)c5cc(C)ccc5n(C)c4=O)CC3)c2cc1OCC.Cl", "note": "[Compound 10, 3-[1-(6,7-Diethoxy-2-morpholino-4-quinazolinyl)-4-piperidinyl]-1,2,3,4-tetrahydro-1,6-dimethyl-2,4-dioxoquinazoline hydrochloride]", "values": [{"measurement": "minimum lethal dose (MLD), intraperitoneal", "setting": "dd-strain male mice; intraperitoneal", "value": "> 100", "unit": "mg/kg"}, {"measurement": "minimum lethal dose (MLD), oral", "setting": "dd-strain male mice; oral", "value": "> 1000", "unit": "mg/kg"}, {"measurement": "Urinary Albumin Content", "setting": "[3]; 1 mg/kg oral once a day, mean ± standard error, 11 mice, control 134 ± 9, normal 85 ± 5, marked **", "value": "96 ± 7", "unit": "mg/kg/24 hr"}, {"measurement": "effect on increase of urinary albumin in nephritis (in words)", "setting": "[3]; Masugi nephritis, mice", "value": "inhibits the increase of urinary albumin in nephritis"}, {"measurement": "IC50", "setting": "[1]", "value": 97, "unit": "nM"}, {"measurement": "Ki", "setting": "[2]", "value": 2, "unit": "nM"}, {"measurement": "Urinary Albumin Content", "setting": "[4]; 1 mg/kg oral once a day for 11 weeks, 10 animals, * less than 5% vs control", "value": "244 ± 16", "unit": "mg/kg/24 hr"}, {"measurement": "Urinary Albumin Content", "setting": "[4]; 10 mg/kg oral once a day for 11 weeks, 9 animals, ** less than 1% vs control", "value": "200 ± 13", "unit": "mg/kg/24 hr"}, {"measurement": "effect on increase of urinary albumin in diabetic nephropathy (in words)", "setting": "[4]; STZ diabetic nephropathy, mice", "value": "inhibits the increase of urinary albumin in diabetic nephropathy"}]}, {"smiles": "COc1cc2nc(N(C)C)nc(N3CCC(n4c(=O)c5cc(C)ccc5n(C)c4=O)CC3)c2cc1OC", "note": "[Compound 5, 3-[1-(2-Dimethylamino-6,7-dimethoxy-4-quinazolinyl)-4-piperidinyl]-1,2,3,4-tetrahydro-1,6-dimethyl-2,4-dioxoquinazoline]", "values": [{"measurement": "Ki", "setting": "[2]", "value": 2.6, "unit": "nM"}]}, {"smiles": "COc1cc2nc(N(CCO)CCO)nc(N3CCC(n4c(=O)c5cc(C)ccc5n(C)c4=O)CC3)c2cc1OC", "note": "[Compound 6, 3-{1-[2-Bis(2-hydroxyethyl)amino-6,7-dimethoxy-4-quinazolinyl]-4-piperidinyl}-1,2,3,4-tetrahydro-1,6-dimethyl-2,4-dioxoquinazoline]", "values": [{"measurement": "IC50", "setting": "[1]", "value": 29, "unit": "nM"}, {"measurement": "Ki", "setting": "[2]", "value": 1.5, "unit": "nM"}]}, {"smiles": "CCCNc1nc(N2CCC(n3c(=O)c4cc(C)ccc4n(C)c3=O)CC2)c2cc(OC)c(OC)cc2n1", "note": "[Compound 8, 3-[1-(6,7-Dimethoxy-2-propylamino-4-quinazolinyl)-4-piperidinyl]-1,2,3,4-tetrahydro-1,6-dimethyl-2,4-dioxoquinazoline]", "values": [{"measurement": "IC50", "setting": "[1]", "value": 50, "unit": "nM"}, {"measurement": "Ki", "setting": "[2]", "value": 1.4, "unit": "nM"}]}, {"smiles": "COc1cc2nc(N3CCN(C)CC3)nc(N3CCC(n4c(=O)c5cc(C)ccc5n(C)c4=O)CC3)c2cc1OC", "note": "[Compound 2, 3-{1-[6,7-Dimethoxy-2-(4-methyl-1-piperazinyl)-4-quinazolinyl]-4-piperidinyl}-1,2,3,4-tetrahydro-1,6-dimethyl-2,4-dioxoquinazoline]", "values": [{"measurement": "IC50", "setting": "[1]", "value": 64, "unit": "nM"}]}, {"smiles": "CCOC(=O)C1CCN(c2nc(N3CCC(n4c(=O)c5cc(C)ccc5n(C)c4=O)CC3)c3cc(OC)c(OC)cc3n2)CC1", "note": "[Compound 3, 3-{1-[2-(4-Ethoxycarbonylpiperidino)-6,7-dimethoxy-4-quinazolinyl]-4-piperidinyl}-1,2,3,4-tetrahydro-1,6-dimethyl-2,4-dioxoquinazoline]", "values": [{"measurement": "Ki", "setting": "[2]", "value": 7.6, "unit": "nM"}]}, {"smiles": "COc1cc2nc(N3CCC(C(=O)O)CC3)nc(N3CCC(n4c(=O)c5cc(C)ccc5n(C)c4=O)CC3)c2cc1OC", "note": "[Compound 4, 3-{1-[2-(4-Carboxypiperidino)-6,7-dimethoxy-4-quinazolinyl]-4-piperidinyl}-1,2,3,4-tetrahydro-1,6-dimethyl-2,4-dioxoquinazoline]", "values": [{"measurement": "IC50", "setting": "[1]", "value": 72, "unit": "nM"}]}, {"smiles": "COc1cc2nc(N3CCOCC3)nc(N3CCC(n4c(=O)c5cc(C)ccc5n(C)c4=O)CC3)c2cc1OC", "note": "[Compound 1, 3-[1-(6,7-Dimethoxy-2-morpholino-4-quinazolinyl)-4-piperidinyl]-1,2,3,4-tetrahydro-1,6-dimethyl-2,4-dioxoquinazoline]", "values": [{"measurement": "IC50", "setting": "[1]", "value": 35, "unit": "nM"}, {"measurement": "Ki", "setting": "[2]", "value": 2, "unit": "nM"}]}]}
